Laboratory results taken from patent US20260027073A1, “USE OF SMALL-MOLECULE COMPOUND HAVING NAPHTHYLAMINE STRUCTURE” (HANGZHOU PHECDAMED CO., LTD., priority 2023, published 2026).

Tests used:
MRL/lpr mice = assay: Lupus nephritis in MRL/lpr mice; format: in vivo
Method: The 10-week-old female MRL/lpr mice were fed in an SPF environment with a light-dark cycle of 12 h and the temperature maintained at 24-26° C. The mice were randomly divided into three groups according to their body weights, namely, the model group (Control, n=8, 0.5% CMC-Na by oral gavage), TJ01-013 10 mg/kg treatment group (10 mg/kg, n=8, 10 mg/kg TJ01-013 by oral gavage), TJ01-013 30 mg/kg treatment group (30 mg/kg, n=8, 30 mg/kg TJ01-013 by oral gavage), the animals were adaptively fed for one week, and were administered every day starting from 11th week, and the animals were monitored for the concentration of randomized urinary proteins and urinary creatinine of the mice in each group every 2 weeks starting from week 11, the mouse urine protein to creatinine concentration ratio (uPCR) was calculated. The animals were administered for a total of 10 weeks, and blood was collected from the orbits at the end of administration and serum was collected. Serum creatinine, urea nitrogen, serum ANA and anti-dsDNA concentrations were detected.
Urine protein and urinary creatinine levels were detected by utilizing Caumas Brilliant Blue staining.
Serum creatinine and urea nitrogen were detected by biochemical analyzer.
Serum ANA and anti-dsDNA levels were detected by ELISA.
Kidney tissue was placed in a homogenizer and minced into pieces thoroughly with clean scissors; 400 μl of lysate was added to the homogenizer, homogenized and then placed on ice, and the grinding was repeated several times on ice until the kidney tissue was ground as thoroughly as possible; after 30 min of lysis, the lysate was transferred to a 1.5 ml centrifuge tube with a pipette, and then centrifuged for 10 min at 12,000 rpm under the condition of 4° C., and the supernatant was taken and stored at −20° C. Inflammatory factors TNFα and IL-6 in kidney tissue proteins were detected using ELISA.

[1] = test system: chronic obstructive pulmonary disease model rats; assay: Chronic obstructive pulmonary disease (LPS plus passive smoking); format: in vivo, SD rats; settings: gavage 3 weeks, FIG. 62
Method: After 5-week-old male SD rats were adaptively fed for 1 week, they were randomly grouped according to their body weights into five groups, i.e., a normal control group (normal, n=10), a model control group (Control, n=10), a TJ01-013 7.5 mg/kg treatment group (7.5 mg/kg, n=10), a TJ01-013 15 mg/kg treatment group (15 mg/kg, n=10), TJ01-013 30 mg/kg treatment group (30 mg/kg, n=10). The model was replicated using the intra-airway injection of lipopolysaccharide method combined with passive smoking method, which is a recognized model for chronic obstructive pulmonary disease. […] From the second day of modeling, the normal control group and the model control group were treated with vehicle (0.5% CMC-Na) by gavage, and the TJ01-013 treatment group was treated with the corresponding concentration of TJ01-013 in a volume of 10 ml/kg for a total of 3 weeks, and blood was collected from the posterior bulbous vein of the rat after administration, and the blood was centrifuged at 6,000 rpm for 10 min after standing still at room temperature for 30 min, then the upper layer of serum was taken, and the levels of TNFα and CXCL1 in serum were detected by enzyme-linked immunosorbent assay (ELISA).

O=C(O)C[S+]([O-])c1cc(NS(=O)(=O)c2ccc(Br)cc2)c2ccccc2c1O (stereo not drawn) [I-1]
urine protein to creatinine concentration ratio (uPCR) (MRL/lpr mice; 10 weeks of administration, 10 and 30 mg/kg groups, FIG. 74): significantly lower | serum creatinine level (MRL/lpr mice; vs model group, FIG. 75): significantly decreased | serum urea nitrogen level (MRL/lpr mice; vs model group, FIG. 75): significantly decreased | serum ANA level (MRL/lpr mice; vs model group, FIG. 76): significantly decreased | serum dsDNA level (MRL/lpr mice; vs model group, FIG. 77): significantly decreased | IL-6 level in kidney tissues (MRL/lpr mice; vs model group, FIG. 78): significantly reduced | TNFα level in kidney tissues (MRL/lpr mice; vs model group, FIG. 78): significantly reduced | serum CXCL1 level ([1]; 15 mg/kg and 30 mg/kg): reduce | serum TNFα level ([1]; 30 mg/kg): reduced the serum TNFα level, and the difference was significant
